From ChEMBL document CHEMBL3885861, “Open TG-GATES”

Organism: Rattus norvegicus
Test: Open TG-GATES - Regimen: Daily Repeat
Assay type: toxicity, organism-based, Sprague-Dawley
Parameters: regimen Daily Repeat, gender Male, age 6 weeks
Settings: in vivo, po, 300 mg/kg, route gavage, dose level Middle; for APTT / Bas / Eos / Fbg / Hb / Ht / Lym / MCH / MCHC / MCV / Mono / Neu / PT / Plat / RBC / Ret / WBC: tissue Blood; for KIDNEY_L / KIDNEY_R / KIDNEY_TOTAL: tissue Kidney; for LIVER: tissue Liver; for A/G / ALP / ALT / AST / BUN / CRE / Ca / Cl / DBIL / GLC / IP / K / LDH / Na / PL / RALB / TBIL / TC / TG / TP / gamma-GTP: tissue Plasma

CN/C(=N/CCSCc1nc[nH]c1C)NC#N [CIMETIDINE]
TERMINAL_BW (72 h, time 3 day): 228.5 g | APTT (72 h, time 3 day): 18.9 s | Bas (72 h, time 3 day): 0% | Eos (72 h, time 3 day): 1% | Fbg (72 h, time 3 day): 228.2 mg/dL | Hb (72 h, time 3 day): 13.1 g/dL | Ht (72 h, time 3 day): 39.2% | Lym (72 h, time 3 day): 80% | MCH (72 h, time 3 day): 21.3 pg | MCHC (72 h, time 3 day): 33.6% | MCV (72 h, time 3 day): 63.5 fL | Mono (72 h, time 3 day): 2.6% | Neu (72 h, time 3 day): 14.8% | PT (72 h, time 3 day): 12.4 s | Plat (72 h, time 3 day): 125.9 x10_4/uL | RBC (72 h, time 3 day): 616.6 x10_4/ul | Ret (72 h, time 3 day): 6% | WBC (72 h, time 3 day): 104.1 x10_2/uL | KIDNEY_L (72 h, time 3 day): 1 g | KIDNEY_R (72 h, time 3 day): 1 g | KIDNEY_TOTAL (72 h, time 3 day): 2 g | LIVER (72 h, time 3 day): 11.4 g | A/G (72 h, time 3 day): 1.6 | ALP (72 h, time 3 day): 1094.2 IU/L | ALT (72 h, time 3 day): 37.6 IU/L | AST (72 h, time 3 day): 67.2 IU/L | BUN (72 h, time 3 day): 15.8 mg/dL | CRE (72 h, time 3 day): 0.4 mg/dL | Ca (72 h, time 3 day): 11.1 mg/dL | Cl (72 h, time 3 day): 102.4 meq/L | DBIL (72 h, time 3 day): 0.1 mg/dL | GLC (72 h, time 3 day): 195 mg/dL | IP (72 h, time 3 day): 7.2 mg/dL | K (72 h, time 3 day): 4.1 meq/L | LDH (72 h, time 3 day): 140.8 IU/L | Na (72 h, time 3 day): 140.8 meq/L | PL (72 h, time 3 day): 156.2 mg/dL | RALB (72 h, time 3 day): 3.5 g/dL | TBIL (72 h, time 3 day): 0.2 mg/dL | TC (72 h, time 3 day): 79.2 mg/dL | TG (72 h, time 3 day): 119.8 mg/dL | TP (72 h, time 3 day): 5.7 g/dL | gamma-GTP (72 h, time 3 day): 0.6 IU/L | TERMINAL_BW ([…], time 7 day): 259.4 g | TERMINAL_BW ([…], time 14 day): 317.5 g | TERMINAL_BW ([…], time 28 day): 390.1 g | APTT ([…], time 7 day): 19.2 s | Bas ([…], time 7 day): 0% | Eos ([…], time 7 day): 1% | Fbg ([…], time 7 day): 222.6 mg/dL | Hb ([…], time 7 day): 13.6 g/dL | Ht ([…], time 7 day): 40.9% | Lym ([…], time 7 day): 78.2% | MCH ([…], time 7 day): 21 pg | MCHC ([…], time 7 day): 33.1% | MCV ([…], time 7 day): 63.2 fL | Mono ([…], time 7 day): 2.6% | Neu ([…], time 7 day): 16.6% | PT ([…], time 7 day): 12.6 s | Plat ([…], time 7 day): 127.8 x10_4/uL | RBC ([…], time 7 day): 646.8 x10_4/ul | Ret ([…], time 7 day): 5.3% | WBC ([…], time 7 day): 107.7 x10_2/uL | APTT ([…], time 14 day): 18.9 s | Bas ([…], time 14 day): 0% | Eos ([…], time 14 day): 1% | Fbg ([…], time 14 day): 222.4 mg/dL | Hb ([…], time 14 day): 14.2 g/dL | Ht ([…], time 14 day): 42.9% | Lym ([…], time 14 day): 80% | MCH ([…], time 14 day): 20 pg | MCHC ([…], time 14 day): 32.9% | MCV ([…], time 14 day): 60.6 fL | Mono ([…], time 14 day): 2.8% | Neu ([…], time 14 day): 15.8% | PT ([…], time 14 day): 12.7 s | Plat ([…], time 14 day): 125.7 x10_4/uL | RBC ([…], time 14 day): 709.6 x10_4/ul | Ret ([…], time 14 day): 4.3% | WBC ([…], time 14 day): 117.5 x10_2/uL | APTT ([…], time 28 day): 18.7 s | Bas ([…], time 28 day): 0% | Eos ([…], time 28 day): 1% | Fbg ([…], time 28 day): 225.2 mg/dL | Hb ([…], time 28 day): 14.6 g/dL | Ht ([…], time 28 day): 42.1% | Lym ([…], time 28 day): 82.6% | MCH ([…], time 28 day): 19.5 pg | MCHC ([…], time 28 day): 34.6% | MCV ([…], time 28 day): 56.3 fL | Mono ([…], time 28 day): 2.2% | Neu ([…], time 28 day): 13.2% | PT ([…], time 28 day): 13 s | Plat ([…], time 28 day): 108.2 x10_4/uL | RBC ([…], time 28 day): 747.2 x10_4/ul | Ret ([…], time 28 day): 2.5% | WBC ([…], time 28 day): 140.1 x10_2/uL | KIDNEY_L ([…], time 7 day): 1.1 g | KIDNEY_R ([…], time 7 day): 1.1 g | KIDNEY_TOTAL ([…], time 7 day): 2.2 g | KIDNEY_L ([…], time 14 day): 1.2 g | KIDNEY_R ([…], time 14 day): 1.2 g | KIDNEY_TOTAL ([…], time 14 day): 2.4 g | KIDNEY_L ([…], time 28 day): 1.4 g | KIDNEY_R ([…], time 28 day): 1.4 g | KIDNEY_TOTAL ([…], time 28 day): 2.8 g | LIVER ([…], time 7 day): 12.3 g | LIVER ([…], time 14 day): 14.6 g | LIVER ([…], time 28 day): 16.3 g | A/G ([…], time 7 day): 1.5 | ALP ([…], time 7 day): 951.8 IU/L | ALT ([…], time 7 day): 32.2 IU/L | AST ([…], time 7 day): 64.6 IU/L | BUN ([…], time 7 day): 17.6 mg/dL | CRE ([…], time 7 day): 0.4 mg/dL | Ca ([…], time 7 day): 10.8 mg/dL | Cl ([…], time 7 day): 102.4 meq/L | DBIL ([…], time 7 day): 0.094 mg/dL | GLC ([…], time 7 day): 234.6 mg/dL | IP ([…], time 7 day): 7.6 mg/dL | K ([…], time 7 day): 3.8 meq/L | LDH ([…], time 7 day): 168 IU/L | Na ([…], time 7 day): 141.4 meq/L | PL ([…], time 7 day): 156.2 mg/dL | RALB ([…], time 7 day): 3.4 g/dL | TBIL ([…], time 7 day): 0.1 mg/dL | TC ([…], time 7 day): 73.4 mg/dL | TG ([…], time 7 day): 120 mg/dL | TP ([…], time 7 day): 5.6 g/dL | gamma-GTP ([…], time 7 day): 1.4 IU/L | A/G ([…], time 14 day): 1.4 | ALP ([…], time 14 day): 1080.4 IU/L | ALT ([…], time 14 day): 37.8 IU/L | AST ([…], time 14 day): 65.8 IU/L | BUN ([…], time 14 day): 19.2 mg/dL | CRE ([…], time 14 day): 0.4 mg/dL | Ca ([…], time 14 day): 10.5 mg/dL | Cl ([…], time 14 day): 102 meq/L | DBIL ([…], time 14 day): 0.1 mg/dL | GLC ([…], time 14 day): 216.2 mg/dL | IP ([…], time 14 day): 7.2 mg/dL | K ([…], time 14 day): 3.9 meq/L | LDH ([…], time 14 day): 176.4 IU/L | Na ([…], time 14 day): 140.6 meq/L | PL ([…], time 14 day): 164.2 mg/dL | RALB ([…], time 14 day): 3.3 g/dL | TBIL ([…], time 14 day): 0.2 mg/dL | TC ([…], time 14 day): 77.6 mg/dL | TG ([…], time 14 day): 129 mg/dL | TP ([…], time 14 day): 5.8 g/dL | gamma-GTP ([…], time 14 day): 1 IU/L | A/G ([…], time 28 day): 1.3 | ALP ([…], time 28 day): 725.6 IU/L | ALT ([…], time 28 day): 39.4 IU/L | AST ([…], time 28 day): 67 IU/L | BUN ([…], time 28 day): 18.6 mg/dL | CRE ([…], time 28 day): 0.5 mg/dL | Ca ([…], time 28 day): 10.1 mg/dL | Cl ([…], time 28 day): 101.8 meq/L | DBIL ([…], time 28 day): 0.1 mg/dL | GLC ([…], time 28 day): 253 mg/dL | IP ([…], time 28 day): 6.7 mg/dL | K ([…], time 28 day): 3.4 meq/L | LDH ([…], time 28 day): 183.8 IU/L | Na ([…], time 28 day): 140.2 meq/L | PL ([…], time 28 day): 148 mg/dL | RALB ([…], time 28 day): 3.3 g/dL | TBIL ([…], time 28 day): 0.2 mg/dL | TC ([…], time 28 day): 70.6 mg/dL | TG ([…], time 28 day): 128 mg/dL | TP ([…], time 28 day): 5.8 g/dL | gamma-GTP ([…], time 28 day): 1.2 IU/L
